Converted amounts (≈) assume the structure as drawn. “And” between values parts separate entries of the source, which are not always exact repeats. Equal values may be shown once. Read-outs that look alike come from different tables or passages of the source.
How the values were obtained:
Cryptococcus neoformans = assay: Susceptibility assay (MIC, broth microdilution, CLSI M27); type: cell-based; conditions: for MIC / NO dose at MIC: Cryptococcus neoformans; for MIC: 72 h; for NO dose at MIC: calculated NO dose at MIC
Candida albicans = assay: as above; type: cell-based; conditions: for MIC: 24 h; for NO dose at MIC: calculated NO dose at MIC
Candida auris = assay: as above; type: cell-based; conditions: for MIC / NO dose at MIC: Candidozyma auris; for MIC: 24 h; for NO dose at MIC: calculated NO dose at MIC; for resistance of strain to antifungal (breakpoint): CLSI/EUCAST breakpoints
[1] = system: Aspergillus fumigatus spores; assay: Susceptibility assay for sporulating fungi (MIC, EUCAST E.Def.9.4); type: cell-based
[2] = system: C. neoformans (ATCC208821); type: cell-based, Cryptococcus neoformans
[3] = system: C. neoformans (ATCC 208821); assay: Checkerboard assay of NO donors with antifungals; type: cell-based, Cryptococcus neoformans
[4] = Characterization of NO release (chemiluminescence nitric oxide analyzer); type: physicochemical; conditions: phosphate-buffered saline 10 mM, pH 7.4, 37 °C
C. auris (MYA-5001) = type: cell-based, Candida auris
C. auris (ATCC MYA-5001) = assay: Checkerboard assay of NO donors with antifungals; type: cell-based, Candida auris
[5] = system: C. albicans (ATCC MYA-2876); assay: Checkerboard assay of NO donors with antifungals; type: cell-based, Candida albicans
[6] = system: MatTek EpiAirway tissue (AIR-100); assay: cells; type: cell-based; conditions: Homo sapiens, 24 h, read-out: IC50 (concentration needed to inhibit tissue viability by 50%)
[7] = Cryptococcus neoformans ATCC 208821
[8] = Cryptococcus neoformans ATCC MYA-4566
[9] = Cryptococcus neoformans ATCC MYA-4567
[10] = ATCC1022, Aspergillus fumigatus ATCC 1022 spores
[11] = ATCC208821, 72 h, Cryptococcus neoformans ATCC 208821
[12] = NO donor combined with 5-fluorocytosine
[13] = NO donor combined with amphotericin B
[14] = NO donor combined with butenafine
[15] = NO donor combined with caspofungin
[16] = NO donor combined with fluconazole
[17] = NO donor combined with miconazole
[18] = ATCC14053, Candida albicans ATCC 14053
[19] = ATCC18804, Candida albicans ATCC 18804

NCCCNCCCCNCCCN [SPER, spermine, reference compound]
MIC of base scaffold (Cryptococcus neoformans; [7]): 5000 µg/mL | MIC of base scaffold (Cryptococcus neoformans; [8]): 2500 µg/mL | MIC of base scaffold (Cryptococcus neoformans; [9]): 2500 µg/mL | MIC of base scaffold (Candida albicans; Candida albicans ATCC 14053): 20000 µg/mL | MIC of base scaffold (Candida albicans; Candida albicans ATCC 18804): > 20000 µg/mL | MIC of base scaffold (Candida albicans; Candida albicans ATCC MYA-2876): > 20000 µg/mL | MIC of base scaffold (Candida auris; Candida auris ATCC MYA-5000): > 20000 µg/mL | MIC of base scaffold (Candida auris; Candida auris ATCC MYA-5001): > 20000 µg/mL | MIC of base scaffold (Candida auris; Candida auris ATCC MYA-5003): > 20000 µg/mL

NCCNCCN [DETA, Diethylenetriamine, reference compound]
MIC of base scaffold (Cryptococcus neoformans; [7]): > 20000 µg/mL | MIC of base scaffold (Cryptococcus neoformans; [8]): > 20000 µg/mL | MIC of base scaffold (Cryptococcus neoformans; [9]): 10000 µg/mL | MIC of base scaffold (Candida albicans; Candida albicans ATCC 14053): > 20000 µg/mL | MIC of base scaffold (Candida albicans; Candida albicans ATCC 18804): > 20000 µg/mL | MIC of base scaffold (Candida albicans; Candida albicans ATCC MYA-2876): > 20000 µg/mL | MIC of base scaffold (Candida auris; Candida auris ATCC MYA-5000): > 20000 µg/mL | MIC of base scaffold (Candida auris; Candida auris ATCC MYA-5001): > 20000 µg/mL | MIC of base scaffold (Candida auris; Candida auris ATCC MYA-5003): > 20000 µg/mL

Clc1ccc(COC(Cn2ccnc2)c2ccc(Cl)cc2Cl)c(Cl)c1 (stereo not drawn) [miconazole, reference compound]
MIC [1, 10]: > 500 µg/mL | MIC (Cryptococcus neoformans; [11]): 0.5 µg/mL (≈ 1.2 µM) | MIC (Candida albicans; Candida albicans ATCC MYA-2876): 60 µg/mL (≈ 144 µM) | MIC (Candida auris; Candida auris ATCC MYA-5001): 4 µg/mL (≈ 9.61 µM)

NCCCNCCCCN(CCCN)/[N+]([O-])=N/O [SPER/NO, spermine/NO]
Selectivity Index (IC50 AIR-100 / MIC) ([1]; A. fumigatus ATCC 1022): 293 | MIC [1, 10]: 70 µg/mL (≈ 267 µM) | NO dose at MIC ([1]; ATCC1022, Aspergillus fumigatus ATCC 1022 spores, calculated NO dose at MIC): 10.7 µg/mL | outcome of passaging at sub-MIC dose [2]: yeast death after the second passage | checkerboard classification [3, 12]: I (indifferent (I)) | ∑FIC [3, 12]: ≥ 1 | checkerboard classification [3, 13]: I (indifferent (I)) | ∑FIC [3, 13]: ≥ 1 | checkerboard classification [3, 14]: A (additive (A)) | ∑FIC [3, 14]: 0.562 | checkerboard classification [3, 15]: I (indifferent (I)) | ∑FIC [3, 15]: ≥ 1 | checkerboard classification [3, 16]: I (indifferent (I)) | ∑FIC [3, 16]: ≥ 1 | checkerboard classification [3, 17]: S (Synergistic (S)) | ∑FIC [3, 17]: 0.500 | [NO]max, maximum instantaneous NO concentration [4]: 7535 ± 222 ppb mg^−1 | [NO]t, total NO released over full duration [4]: 5.1 ± 0.2 µmol/mg | td, duration of NO release [4]: 14.8 ± 2.9 h | Selectivity Index (IC50 AIR-100 / MIC) (Cryptococcus neoformans; C. neoformans ATCC 208821): 41 | Selectivity Index (IC50 AIR-100 / MIC) (Cryptococcus neoformans; C. neoformans ATCC MYA-4566): 1079 | Selectivity Index (IC50 AIR-100 / MIC) (Cryptococcus neoformans; C. neoformans ATCC MYA-4567): 263 | MIC (Cryptococcus neoformans; [8]): 19 µg/mL (≈ 72.4 µM) | MIC (Cryptococcus neoformans; [9]): 78 µg/mL (≈ 297 µM) | MIC (Cryptococcus neoformans; [11]): 500 µg/mL (≈ 1910 µM) | NO dose at MIC (Cryptococcus neoformans; ATCC208821, Cryptococcus neoformans ATCC 208821): 76.8 µg/mL | NO dose at MIC (Cryptococcus neoformans; [8]): 3.08 µg/mL | NO dose at MIC (Cryptococcus neoformans; [9]): 12 µg/mL | MIC (Candida albicans; [18]): 250 µg/mL (≈ 953 µM) | NO dose at MIC (Candida albicans; [18]): 38.6 µg/mL | MIC (Candida albicans; [19]): 150 µg/mL (≈ 572 µM) | NO dose at MIC (Candida albicans; [19]): 23.1 µg/mL | Selectivity Index (IC50 AIR-100 / MIC) (Candida albicans; C. albicans ATCC 14053): 82 | Selectivity Index (IC50 AIR-100 / MIC) (Candida albicans; C. albicans ATCC 18804): 137 | Selectivity Index (IC50 AIR-100 / MIC) (Candida albicans; C. albicans ATCC MYA-2876): 164 | MIC (Candida albicans; Candida albicans ATCC MYA-2876): 125 µg/mL (≈ 476 µM) | NO dose at MIC (Candida albicans; Candida albicans ATCC MYA-2876): 19.2 µg/mL | change in MIC or MFCs after serial passaging (C. auris (MYA-5001)): no changes | checkerboard classification (C. auris (ATCC MYA-5001); [12]): I (indifferent (I)) | ∑FIC (C. auris (ATCC MYA-5001); [12]): ≥ 1 | checkerboard classification (C. auris (ATCC MYA-5001); [13]): I (indifferent (I)) | ∑FIC (C. auris (ATCC MYA-5001); [13]): ≥ 1 | checkerboard classification (C. auris (ATCC MYA-5001); [14]): I (indifferent (I)) | ∑FIC (C. auris (ATCC MYA-5001); [14]): ≥ 1 | checkerboard classification (C. auris (ATCC MYA-5001); [15]): I (indifferent (I)) | ∑FIC (C. auris (ATCC MYA-5001); [15]): ≥ 1 | checkerboard classification (C. auris (ATCC MYA-5001); [16]): I (indifferent (I)) | ∑FIC (C. auris (ATCC MYA-5001); [16]): ≥ 1 | checkerboard classification (C. auris (ATCC MYA-5001); [17]): S (Synergistic (S)) | ∑FIC (C. auris (ATCC MYA-5001); [17]): 0.375 | checkerboard classification [5, 12]: I (indifferent (I)) | ∑FIC [5, 12]: ≥ 1 | checkerboard classification [5, 13]: I (indifferent (I)) | ∑FIC [5, 13]: ≥ 1 | checkerboard classification [5, 14]: I (indifferent (I)) | ∑FIC [5, 14]: ≥ 1 | checkerboard classification [5, 15]: I (indifferent (I)) | ∑FIC [5, 15]: ≥ 1 | checkerboard classification [5, 16]: I (indifferent (I)) | ∑FIC [5, 16]: ≥ 1 | checkerboard classification [5, 17]: S (Synergistic (S)) | ∑FIC [5, 17]: 0.265 | Selectivity Index (IC50 AIR-100 / MIC) (Candida auris; C. auris ATCC MYA-5000): 164 | Selectivity Index (IC50 AIR-100 / MIC) (Candida auris; C. auris ATCC MYA-5001): 82 | Selectivity Index (IC50 AIR-100 / MIC) (Candida auris; C. auris ATCC MYA-5003): 164 | MIC (Candida auris; Candida auris ATCC MYA-5000): 125 µg/mL (≈ 476 µM) | MIC (Candida auris; Candida auris ATCC MYA-5001): 250 µg/mL (≈ 953 µM) | MIC (Candida auris; Candida auris ATCC MYA-5003): 125 µg/mL (≈ 476 µM) | NO dose at MIC (Candida auris; Candida auris ATCC MYA-5000): 19.2 µg/mL | NO dose at MIC (Candida auris; Candida auris ATCC MYA-5001): 38.6 µg/mL | NO dose at MIC (Candida auris; Candida auris ATCC MYA-5003): 19.2 µg/mL | IC50 [6]: 20000 µg/mL (≈ 76200 µM)

NCCCNCCCN [DPTA, bis(3-aminopropyl) amine, reference compound]
MIC of base scaffold (Cryptococcus neoformans): 5000 µg/mL and 2500 µg/mL | MIC of base scaffold (Candida albicans): 20000 µg/mL | MIC of base scaffold (Candida auris): > 20000 µg/mL

CN(Cc1ccc(C(C)(C)C)cc1)Cc1cccc2ccccc12 [butenafine, reference compound]
MIC [1, 10]: > 500 µg/mL | MIC (Cryptococcus neoformans; [11]): 0.3 µg/mL (≈ 0.945 µM) | MIC (Candida albicans; Candida albicans ATCC MYA-2876): > 4000 µg/mL | MIC (Candida auris; Candida auris ATCC MYA-5001): > 4000 µg/mL

OC(Cn1cncn1)(Cn1cncn1)c1ccc(F)cc1F [fluconazole, reference compound]
MIC [1, 10]: > 125 µg/mL | MIC (Cryptococcus neoformans; [11]): 4 µg/mL (≈ 13.1 µM) | resistance of strain to antifungal (breakpoint) (Candida albicans; C. albicans ATCC MYA-2876, CLSI/EUCAST breakpoints): resistant | MIC (Candida albicans; Candida albicans ATCC MYA-2876): > 32 µg/mL | resistance of strain to antifungal (breakpoint) (Candida auris; C. auris ATCC MYA-5001): resistant | MIC (Candida auris; Candida auris ATCC MYA-5001): > 32 µg/mL

Nc1nc(=O)[nH]cc1F [5-fluorocytosine, reference compound]
MIC [1, 10]: > 62.5 µg/mL | increase of MIC and MFC values after serial passaging ([2]; C. neoformans, daily exposure to 1/10th of MIC, by passage 5): over 256 fold | MIC (Cryptococcus neoformans; [11]): 4 µg/mL (≈ 31 µM) | MIC (Candida albicans; Candida albicans ATCC MYA-2876): 0.125 µg/mL (≈ 0.968 µM) | increase of MIC and MFC values after serial passaging (C. auris (MYA-5001); C. auris, daily exposure to 1/10th of MIC, by passage 5): over 256 fold | MIC (Candida auris; Candida auris ATCC MYA-5001): 2 µg/mL (≈ 15.5 µM)

C[C@@H]1[C@H](O)[C@@H](C)/C=C/C=C/C=C/C=C/C=C/C=C/C=C/[C@H](O[C@@H]2O[C@H](C)[C@@H](O)[C@H](N)[C@@H]2O)C[C@@H]2O[C@](O)(C[C@@H](O)C[C@@H](O)[C@H](O)CC[C@@H](O)C[C@@H](O)CC(=O)O[C@H]1C)C[C@H](O)[C@H]2C(=O)O [amphotericin B, reference compound]
resistance of strain to antifungal (breakpoint) ([1]; A. fumigatus ATCC 1022, CLSI/EUCAST breakpoints): resistant | MIC [1, 10]: 2.5 µg/mL (≈ 2.71 µM) | MIC (Cryptococcus neoformans; [11]): 0.195 µg/mL (≈ 0.211 µM) | MIC (Candida albicans; Candida albicans ATCC MYA-2876): 0.25 µg/mL (≈ 0.271 µM) | MIC (Candida auris; Candida auris ATCC MYA-5001): 0.5 µg/mL (≈ 0.541 µM)

CC[C@H](C)C[C@H](C)CCCCCCCCC(=O)N[C@H]1C[C@@H](O)[C@@H](NCCN)NC(=O)[C@@H]2[C@@H](O)CCN2C(=O)[C@H]([C@H](O)CCN)NC(=O)[C@H]([C@H](O)[C@@H](O)c2ccc(O)cc2)NC(=O)[C@@H]2C[C@@H](O)CN2C(=O)[C@H]([C@@H](C)O)NC1=O [caspofungin, reference compound]
MIC [1, 10]: 125 µg/mL (≈ 114 µM) | MIC (Cryptococcus neoformans; [11]): 32 µg/mL (≈ 29.3 µM) | MIC (Candida albicans; Candida albicans ATCC MYA-2876): 0.25 µg/mL (≈ 0.229 µM) | resistance of strain to antifungal (breakpoint) (Candida auris; C. auris ATCC MYA-5001): resistant | MIC (Candida auris; Candida auris ATCC MYA-5001): > 32 µg/mL

Reference: PMC11121837, “Impact of Nitric Oxide-Release Kinetics on Antifungal Activity” (Journal of Fungi, 2024)
